From US10638756B2, “Molecules having pesticidal utility, and intermediates, compositions, and processes, related thereto” (Dow AgroSciences LLC, priority 2017, dated 2020) come the findings set out here.

Usually mortality stands for the percentage killed.

What all share (type): in vivo
Data set [1] relates to Yellow Fever Mosquito (Aedes aegypti). Conditions: about 1 day-old larvae, 3 days, scored on mortality. On the procedure:
Certain molecules disclosed in this document were tested against YFM using procedures described in the following paragraph. In the reporting of the results, the “GPA & YFM Rating Table” was used (See Table Section).
Master plates containing 400 μg of a molecule dissolved in 100 μL of dimethyl sulfoxide (DMSO) (equivalent to a 4000 ppm solution) are used. A master plate of assembled molecules contains 15 μL per well. To this plate, 135 μL of a 90:10 water/acetone mixture is added to each well. A robot (Biomek® NXP Laboratory Automation Workstation) is programmed to dispense 15 μL aspirations from the master plate into an empty 96-well shallow plate (“daughter” plate). There are 6 reps (“daughter” plates) created per master. The created “daughter” plates are then immediately infested with YFM larvae.
The day before plates are to be treated, mosquito eggs are placed in Millipore water containing liver powder to begin hatching (4 g. into 400 mL). After the “daughter” plates are created using the robot, they are infested with 220 μL of the liver powder/larval mosquito mixture (about 1 day-old larvae). After plates are infested with mosquito larvae, a non-evaporative lid is used to cover the plate to reduce drying. Plates are held at room temperature for 3 days prior to grading. After 3 days, each well is observed and scored based on mortality. The results are indicated in the table entitled “Table ABC: Biological Results” (See Table Section).

Data set [2] relates to Cabbage Looper (Trichoplusia ni). In words: Bioassay on Cabbage Looper (CL), 128-well diet tray assay. As to conditions: 168 h, 50 μg/cm^2 on artificial diet, second instar larvae, five to seven days, read-out: CL % Control (or Mortality) rating. The essentials: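 Each of eight wells receives artificial diet treated at 50 μg/cm^2 with the test molecule, then one to five second-instar larvae. Incubation runs five to seven days at 25° C with a 14:10 light-dark cycle under vented covers. Mortality is scored per well as a percentage and averaged.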

Data set [3] relates to Beet Armyworm (Spodoptera exigua). In words: Bioassay on Beet Armyworm (BAW), 128-well diet tray assay. Conditions: Spodoptera exigua, 168 h; 50 μg/cm^2 on artificial diet, second instar larvae, five to seven days; read-out: BAW % Control (or Mortality) rating.

On to `N#Cc1ccc(/C(F)=C/C(c2cc(Cl)c(Cl)c(Cl)c2)C(F)(F)F)cc1C(F)(F)F` (centres unmarked) [C25, (Z)-4-(1,4,4,4-Tetrafluoro-3-(3,4,5-trichlorophenyl)but-1-en-1-yl)-2-(trifluoromethyl)benzonitrile], for which the “YFM % Control (or Mortality) rating” value in data set [1] is given as “A (80-100)”. The mortality at 50 µg/cm2 in data set [2] and in data set [3] was 50 to 100% throughout.
On to `O=C(NNc1c(F)cccc1Cl)c1ccc(/C(F)=C/C(c2cc(Cl)c(Cl)c(Cl)c2)C(F)(F)F)cc1C(F)(F)F` (centres unmarked) [F1, (Z)—N′-(2-chloro-6-fluorophenyl)-4-(1,4,4,4-tetrafluoro-3-(3,4,5-trichlorophenyl)but-1-en-1-yl)-2-(trifluoromethyl)benzohydrazide], for which the “YFM % Control (or Mortality) rating” value in data set [1] is “A (80-100)”. Besides, the mortality at 50 µg/cm2 in data set [2] and in data set [3] was 50 to 100% in each case.
On to `O=C(NNc1cccc(C(F)(F)F)c1)c1ccc(/C(F)=C/C(c2cc(Cl)c(Cl)c(Cl)c2)C(F)(F)F)cc1C(F)(F)F` (centres unmarked) [F3, (Z)-4-(1,4,4,4-Tetrafluoro-3-(3,4,5-trichlorophenyl)but-1-en-1-yl)-2-(trifluoromethyl)-N′-(3-(trifluoromethyl)phenyl)benzohydrazide], for which, in data set [1], the “YFM % Control (or Mortality) rating” value is “A (80-100)”. Also, the mortality at 50 µg/cm2 in data set [2] and in data set [3] was 50 to 100% each time.
As for `CN(NC(=O)c1ccc(/C(F)=C/C(c2ccc(Cl)c(Cl)c2)C(F)(F)F)cc1C(F)(F)F)c1ncccn1` (centres unmarked) [F8, (Z)-4-(3-(3,4-Dichlorophenyl)-1,4,4,4-tetrafluorobut-1-en-1-yl)-N′-methyl-N′-(pyrimidin-2-yl)-2-(trifluoromethyl)benzohydrazideazide], the “YFM % Control (or Mortality) rating” value in data set [1] is “A (80-100)”. For the same compound, the mortality at 50 µg/cm2 in data set [2] and in data set [3] was 50 to 100% throughout.
`O=C(NNc1ccccn1)c1ccc(/C(F)=C/C(c2cc(Cl)c(Cl)c(Cl)c2)C(F)(F)F)cc1C(F)(F)F` (centres unmarked) [F9, (Z)—N′-(Pyridin-2-yl)-4-(1,4,4,4-tetrafluoro-3-(3,4,5-trichlorophenyl)but-1-en-1-yl)-2-(trifluoromethyl)benzohydrazide]: the “YFM % Control (or Mortality) rating” value in data set [1] is reported as “A (80-100)”. Moreover, the mortality at 50 µg/cm2 in data set [2] and in data set [3] was 50 to 100% throughout.
On to `CN(NC(=O)c1ccc(/C(F)=C/C(c2cc(Cl)c(Cl)c(Cl)c2)C(F)(F)F)cc1C(F)(F)F)c1ccccc1` (centres unmarked) [F11, (Z)—N′-Methyl-N′-phenyl-4-(1,4,4,4-tetrafluoro-3-(3,4,5-trichlorophenyl)but-1-en-1-yl)-2-(trifluoromethyl)benzohydrazide], for which the “YFM % Control (or Mortality) rating” value in data set [1] is recorded as “A (80-100)”. For the same compound, the mortality at 50 µg/cm2 in data set [2] and in data set [3] was 50 to 100% each time.
As to `COc1ccccc1NNC(=O)c1ccc(/C(F)=C/C(c2cc(Cl)c(Cl)c(Cl)c2)C(F)(F)F)cc1C(F)(F)F` (centres unmarked) [F14, (Z)—N′-(2-Methoxyphenyl)-4-(1,4,4,4-tetrafluoro-3-(3,4,5-trichlorophenyl)but-1-en-1-yl)-2-(trifluoromethyl)benzohydrazide], in data set [1], the “YFM % Control (or Mortality) rating” value is recorded as “A (80-100)”. In addition, the mortality at 50 µg/cm2 in data set [2] and in data set [3] was 50 to 100% each time.
As for `O=C(NNc1ncccn1)c1ccc(/C(F)=C/C(c2ccc(Br)c(Cl)c2)C(F)(F)F)cc1C(F)(F)F` (centres unmarked) [F16, (Z)-4-(3-(4-Bromo-3-chlorophenyl)-1,4,4,4-tetrafluorobut-1-en-1-yl)-N′-(pyrimidin-2-yl)-2-(trifluoromethyl)benzohydrazide], the “YFM % Control (or Mortality) rating” value in data set [1] is on record as “A (80-100)”. The mortality at 50 µg/cm2 in data set [2] and in data set [3] was 50 to 100% each time.
As to `Cc1cc(F)ccc1NNC(=O)c1ccc(/C(F)=C/C(c2cc(Cl)c(Cl)c(Cl)c2)C(F)(F)F)cc1C(F)(F)F` (centres unmarked) [F35, (Z)—N′-(4-Fluoro-2-methylphenyl)-4-(1,4,4,4-tetrafluoro-3-(3,4,5-trichlorophenyl)but-1-en-1-yl)-2-(trifluoromethyl)benzohydrazide], the “YFM % Control (or Mortality) rating” value in data set [1] is on record as “A (80-100)”. Also, the mortality at 50 µg/cm2 in data set [2] and in data set [3] was 50 to 100% in each case.
With `CN(NC(=O)c1ccc(/C(F)=C/C(c2ccc(Br)c(C(F)(F)F)c2)C(F)(F)F)cc1C(F)(F)F)c1ncccn1` (centres unmarked) [F39, (Z)-4-(3-(4-Bromo-3-(trifluoromethyl)phenyl)-1,4,4,4-tetrafluorobut-1-en-1-yl)-N′-methyl-N′-(pyrimidin-2-yl)-2-(trifluoromethyl)benzohydrazide], the “YFM % Control (or Mortality) rating” value in data set [1] is on record as “A (80-100)”. For the same compound, the mortality at 50 µg/cm2 in data set [2] and in data set [3] was 50 to 100% each time.
`O=C(NNc1ccc(F)cc1)c1ccc(/C(F)=C/C(c2cc(Cl)c(Cl)c(Cl)c2)C(F)(F)F)cc1C(F)(F)F` (centres unmarked) [F52]: the “YFM % Control (or Mortality) rating” value in data set [1] was “A (80-100)”. Besides, the mortality at 50 µg/cm2 in data set [2] and in data set [3] was 50 to 100% each time.
`O=C(NNCc1ccccc1)c1ccc(/C(F)=C/C(c2cc(Cl)c(Cl)c(Cl)c2)C(F)(F)F)cc1C(F)(F)F` (centres unmarked) [F54, (Z)—N′-Benzyl-4-(1,4,4,4-tetrafluoro-3-(3,4,5-trichlorophenyl)but-1-en-1-yl)-2-(trifluoromethyl)benzohydrazide]: the “YFM % Control (or Mortality) rating” value in data set [1] was “A (80-100)”. Also, the mortality at 50 µg/cm2 in data set [2] and in data set [3] was 50 to 100% throughout.
In the case of `O=C(NNc1ncccn1)c1ccc(/C(F)=C/C(c2cc(Cl)cc(Cl)c2)C(F)(F)F)cc1C(F)(F)F` (centres unmarked) [F56, (Z)-4-(3-(3,5-Dichlorophenyl)-1,4,4,4-tetrafluorobut-1-en-1-yl)-N′-(pyrimidin-2-yl)-2-(trifluoromethyl)benzohydrazide], the “YFM % Control (or Mortality) rating” value in data set [1] is listed as “A (80-100)”. The mortality at 50 µg/cm2 in data set [2] and in data set [3] was 50 to 100% throughout.
`O=C(NNc1ncccn1)c1ccc(/C(F)=C/C(c2ccc(Br)c(C(F)(F)F)c2)C(F)(F)F)cc1C(F)(F)F` (centres unmarked) [F78, (Z)-4-(3-(4-Bromo-3-(trifluoromethyl)phenyl)-1,4,4,4-tetrafluorobut-1-en-1-yl)-N′-(pyrimidin-2-yl)-2-(trifluoromethyl)benzohydrazide]: the “YFM % Control (or Mortality) rating” value in data set [1] was “A (80-100)”. Besides, the mortality at 50 µg/cm2 in data set [2] and in data set [3] was 50 to 100% in each case.
As for `CN(NC(=O)c1ccc(/C(F)=C/C(c2cc(Cl)c(Cl)c(Cl)c2)C(F)(F)F)cc1C(F)(F)F)c1ccc(C#N)cn1` (centres unmarked) [F82, (Z)—N′-(5-Cyanopyridin-2-yl)-N′-methyl-4-(1,4,4,4-tetrafluoro-3-(3,4,5-trichlorophenyl)but-1-en-1-yl)-2-(trifluoromethyl)benzohydrazide], the “YFM % Control (or Mortality) rating” value in data set [1] is on record as “A (80-100)”. The mortality at 50 µg/cm2 in data set [2] and in data set [3] was 50 to 100% in each case.
Turning to `O=C(NNc1nnn[nH]1)c1ccc(/C(F)=C/C(c2cc(Cl)c(Cl)c(Cl)c2)C(F)(F)F)cc1C(F)(F)F` (centres unmarked) [F95, (Z)-4-(1,4,4,4-Tetrafluoro-3-(3,4,5-trichlorophenyl)but-1-en-1-yl)-N′-(1H-tetrazol-5-yl)-2-(trifluoromethyl)benzohydrazide], the “YFM % Control (or Mortality) rating” value in data set [1] is reported as “A (80-100)”. Further, the mortality at 50 µg/cm2 in data set [2] and in data set [3] was 50 to 100% in each case.
With `O=C(NNc1ncccc1Cl)c1ccc(/C(F)=C/C(c2cc(Cl)c(Cl)c(Cl)c2)C(F)(F)F)cc1C(F)(F)F` (centres unmarked) [F99, (Z)—N′-(3-Chloropyridin-2-yl)-4-(1,4,4,4-tetrafluoro-3-(3,4,5-trichlorophenyl)but-1-en-1-yl)-2-(trifluoromethyl)benzohydrazide], the “YFM % Control (or Mortality) rating” value in data set [1] was “A (80-100)”. Besides, the mortality at 50 µg/cm2 in data set [2] and in data set [3] was 50 to 100% in each case.
Turning to `N#Cc1cccc(NNC(=O)c2ccc(/C(F)=C/C(c3cc(Cl)c(Cl)c(Cl)c3)C(F)(F)F)cc2C(F)(F)F)c1` (centres unmarked) [F100, (Z)—N′-(3-Cyanophenyl)-4-(1,4,4,4-tetrafluoro-3-(3,4,5-trichlorophenyl)but-1-en-1-yl)-2-(trifluoromethyl)benzohydrazide], in data set [1], the “YFM % Control (or Mortality) rating” value is recorded as “A (80-100)”. In addition, the mortality at 50 µg/cm2 in data set [2] and in data set [3] was 50 to 100% throughout.
In the case of `O=C(/N=N/c1ncccn1)c1ccc(/C(F)=C/C(c2cc(Cl)c(Cl)c(Cl)c2)C(F)(F)F)cc1C(F)(F)F` (centres unmarked) [F192, ((E)-pyrimidin-2-yldiazenyl)(4-((Z)-1,4,4,4-tetrafluoro-3-(3,4,5-trichlorophenyl)but-1-en-1-yl)-2-(trifluoromethyl)phenyl)methanone], the mortality at 50 µg/cm2 in data set [2] and in data set [3] was 50 to 100% each time.
